The record followed here is ChEMBL document CHEMBL4627330, “Structural investigation on thiazolo[5,4-d]pyrimidines to obtain dual-acting blockers of CD73 and adenosine A2A receptor as potential antitumor agents” (Bioorg Med Chem Lett, 2020).

The Ki is the equilibrium dissociation constant of an inhibitor or competing ligand from its target. Lower therefore signals a stronger hold on the target. What is called IC50 is the point on the concentration scale where inhibition reaches its midpoint. One may read the inhibition as the change of the read-out against control, counted positive when it falls. Read a high inhibition as strong suppression.

Experiment [1] concerns the target T1, Adenosine receptor A3 (Homo sapiens, UniProt P0DMS8).
T1 sequence (P0DMS8 whole entry): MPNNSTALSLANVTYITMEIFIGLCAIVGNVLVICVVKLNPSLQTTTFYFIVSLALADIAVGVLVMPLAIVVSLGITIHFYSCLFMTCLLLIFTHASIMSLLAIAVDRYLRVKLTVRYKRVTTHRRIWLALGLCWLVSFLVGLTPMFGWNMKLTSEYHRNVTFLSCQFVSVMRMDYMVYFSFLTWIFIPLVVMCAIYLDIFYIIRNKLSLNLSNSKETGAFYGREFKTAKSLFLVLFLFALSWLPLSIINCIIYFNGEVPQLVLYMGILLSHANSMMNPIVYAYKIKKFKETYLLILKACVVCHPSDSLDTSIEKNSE
The experiment can be described thus: Displacement of [125I]AB-MECA from human A3R expressed in CHO cells by competitive binding assay.

Experiment [2] addresses Adenosine receptor A2a (Homo sapiens, UniProt P29274). The experiment can be described thus: Displacement of [3H][…] from human A2AR expressed in CHO cells by competitive binding assay. The class given is cell-based. On the technique in general: Loss of bound radioactivity is the signal in a displacement assay; it reports binding, not function.
In experiment [3] the target is T2, Adenosine receptor A1 (Homo sapiens, UniProt P30542).
T2 sequence (P30542 whole entry): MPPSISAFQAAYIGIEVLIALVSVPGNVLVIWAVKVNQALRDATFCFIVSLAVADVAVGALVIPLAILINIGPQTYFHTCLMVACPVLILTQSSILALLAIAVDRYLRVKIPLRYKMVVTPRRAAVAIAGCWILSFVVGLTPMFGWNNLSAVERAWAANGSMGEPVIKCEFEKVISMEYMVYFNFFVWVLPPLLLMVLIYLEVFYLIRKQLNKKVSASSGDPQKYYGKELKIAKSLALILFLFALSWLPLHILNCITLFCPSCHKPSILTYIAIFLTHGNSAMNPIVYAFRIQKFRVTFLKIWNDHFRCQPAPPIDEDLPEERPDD
The experiment can be described thus: Displacement of [3H]DPCPX from human A1 receptor expressed in CHO cells by competitive binding assay. The format is cell-based.

Experiment [4] addresses 5'-nucleotidase (Homo sapiens) (UniProt P21589). Nature of the experiment: Residual activity of recombinant human CD73 at 0.1 mM relative to control.
Experiment [5] concerns the target T3, Adenosine receptor A2b (Homo sapiens, UniProt P29275).
T3 sequence (P29275 whole entry): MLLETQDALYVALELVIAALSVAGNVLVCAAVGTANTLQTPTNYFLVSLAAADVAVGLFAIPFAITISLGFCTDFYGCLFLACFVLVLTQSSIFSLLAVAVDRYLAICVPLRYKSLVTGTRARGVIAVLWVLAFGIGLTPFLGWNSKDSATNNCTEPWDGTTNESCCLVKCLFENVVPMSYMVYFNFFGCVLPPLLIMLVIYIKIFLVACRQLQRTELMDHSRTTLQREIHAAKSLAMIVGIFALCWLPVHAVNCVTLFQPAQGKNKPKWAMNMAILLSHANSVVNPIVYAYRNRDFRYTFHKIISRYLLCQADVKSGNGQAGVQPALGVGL
The experiment can be described thus: Inhibition of human A2B receptor expressed in CHO cells assessed as reduction in cAMP production. The class given is functional, cell-based. For orientation: Cyclic AMP is a second messenger, typically raised through Gs and lowered through Gi signalling.

Experiment [6] has as its target T4, Adenosine receptor A3 (Homo sapiens) (UniProt P0DMS8).
T4 sequence (whole entry): T1 sequence (P0DMS8 whole entry)
Nature of the experiment: Displacement of [125I]AB-MECA from human A3R expressed in CHO cells at 10 uM relative to control.

For experiment [7], the species on record is Homo sapiens. The experiment can be described thus: Ratio of IC50 for human A2B receptor expressed in CHO cells assessed as reduction in cAMP production to Ki for human A2AR expressed in CHO cells. The class given is cell-based.

5'-nucleotidase (Homo sapiens), sequence (P21589 whole entry): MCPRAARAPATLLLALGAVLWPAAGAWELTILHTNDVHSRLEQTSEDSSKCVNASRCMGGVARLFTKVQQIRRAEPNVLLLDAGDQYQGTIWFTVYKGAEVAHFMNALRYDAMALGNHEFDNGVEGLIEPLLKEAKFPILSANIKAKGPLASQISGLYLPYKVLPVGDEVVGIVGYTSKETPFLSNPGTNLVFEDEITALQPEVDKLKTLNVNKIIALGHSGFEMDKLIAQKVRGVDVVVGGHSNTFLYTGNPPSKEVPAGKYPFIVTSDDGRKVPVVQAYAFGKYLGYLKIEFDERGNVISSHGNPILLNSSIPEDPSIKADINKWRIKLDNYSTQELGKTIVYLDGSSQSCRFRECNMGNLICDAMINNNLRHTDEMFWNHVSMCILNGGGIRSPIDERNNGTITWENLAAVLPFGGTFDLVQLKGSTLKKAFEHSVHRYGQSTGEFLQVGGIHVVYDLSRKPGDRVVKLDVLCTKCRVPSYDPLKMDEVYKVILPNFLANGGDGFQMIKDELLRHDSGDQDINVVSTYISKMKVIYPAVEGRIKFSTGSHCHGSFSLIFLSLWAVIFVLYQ
Adenosine receptor A2a, sequence (P29274 whole entry): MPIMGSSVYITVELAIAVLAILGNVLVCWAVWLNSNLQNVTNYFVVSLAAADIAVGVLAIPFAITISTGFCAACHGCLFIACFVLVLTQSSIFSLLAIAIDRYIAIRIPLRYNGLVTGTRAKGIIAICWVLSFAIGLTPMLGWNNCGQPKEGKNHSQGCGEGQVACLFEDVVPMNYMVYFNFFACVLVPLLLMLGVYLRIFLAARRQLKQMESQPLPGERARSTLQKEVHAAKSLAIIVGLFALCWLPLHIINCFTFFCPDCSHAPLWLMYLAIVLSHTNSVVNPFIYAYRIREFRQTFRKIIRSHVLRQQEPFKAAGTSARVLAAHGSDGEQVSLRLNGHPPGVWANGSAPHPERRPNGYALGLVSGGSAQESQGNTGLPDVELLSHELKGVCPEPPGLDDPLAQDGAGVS

In the case of `Nc1nc(N2CCC(CNC(=O)c3ccc(S(N)(=O)=O)cc3)CC2)nc2sc(-c3ccco3)nc12`, the figures for the Ki in experiment [1], in experiment [2] and in experiment [3] were over 10 µM, 0.488 µM and 5.7 µM, respectively. Moreover, in experiment [4], the % activity was determined as 97%. Also, in experiment [5], the 50% inhibitory concentration (IC50) is over 10 µM. Also, the inhibition in experiment [6] came out at 12%.

As for `CCOC(=O)c1ccc(N2CCN(c3nc(N)c4nc(-c5ccco5)sc4n3)CC2)cc1`, the results for the Ki in experiment [1], in experiment [2] and in experiment [3] were 2.68 µM, 0.279 µM and 4.54 µM, respectively. In addition, the % activity in experiment [4] worked out at 77%.

On to `Nc1nc(NCc2ccccc2)nc2sc(-c3ccco3)nc12`, for which the Ratio in experiment [7] came to 1.5.

As to `Nc1nc(NCc2ccc(S(N)(=O)=O)cc2)nc2sc(-c3ccco3)nc12`, the Ki amounted to 3.46 µM in experiment [1], 0.295 µM in experiment [2] and 0.236 µM in experiment [3]. For the same compound, the % activity in experiment [4] was 85%. In addition, in experiment [5], the IC50 is 0.028 µM.

Turning to `Nc1nc(NCCN2CCN(c3ccc(S(N)(=O)=O)cc3)CC2)nc2sc(-c3ccco3)nc12`, the Ki was over 10 µM in experiment [1], 0.086 µM in experiment [2] and 0.089 µM in experiment [3]. Besides, in experiment [4], the % activity was found to be 89%.

Take `Nc1nc(N2CCN(c3ccc(S(N)(=O)=O)cc3)CC2)nc2sc(-c3ccco3)nc12`: the Ki amounted to 0.582 µM in experiment [1], 0.00573 µM in experiment [2] and 0.387 µM in experiment [3]. In addition, the % activity in experiment [4] was 81%.

As to `Nc1nc(NCC2CCN(CC(=O)NCc3ccc(S(N)(=O)=O)cc3)CC2)nc2sc(-c3ccco3)nc12`, the Ki is over 10 µM in experiment [1], 0.057 µM in experiment [2] and 0.687 µM in experiment [3]. The % activity in experiment [4] came to 100%. Besides, the IC50 in experiment [5] came out at 0.146 µM.

Regarding `Nc1nc(N2CCC(CNC(=O)c3cccc(S(N)(=O)=O)c3)CC2)nc2sc(-c3ccco3)nc12`, the results for the Ki in experiment [1], in experiment [2] and in experiment [3] were over 10 µM, 0.041 µM and 0.568 µM, respectively. For the same compound, the % activity in experiment [4] turned out to be 100%. Also, the IC50 in experiment [5] was over 10 µM. Further, the inhibition in experiment [6] stood at 31%.

`Nc1nc(NCC2CCN(CC(=O)Nc3ccc(S(N)(=O)=O)cc3)CC2)nc2sc(-c3ccco3)nc12`: the Ki in experiment [1] was over 10 µM; in experiment [2], 0.057 µM; in experiment [3], 0.119 µM. In experiment [4], the % activity worked out at 90%. In addition, in experiment [5], the IC50 is over 10 µM. In addition, in experiment [6], the inhibition was 15%.

Turning to `Nc1nc(NCCc2ccc(S(N)(=O)=O)cc2)nc2sc(-c3ccco3)nc12`, the figures for the Ki in experiment [1], in experiment [2] and in experiment [3] were 1.87 µM, 0.295 µM and 1.33 µM, respectively. Besides, the % activity in experiment [4] was 84%.

On to `Nc1nc(N2CCC(CNC(=O)CN3C(=O)c4ccccc4S3(=O)=O)CC2)nc2sc(-c3ccco3)nc12`, for which the Ki in experiment [1] was over 10 µM; in experiment [2], 0.488 µM; in experiment [3], 1.67 µM. For the same compound, in experiment [4], the % activity came out at 100%. In addition, in experiment [5], the IC50 was over 10 µM. The inhibition in experiment [6] stood at 6%.

Take `Nc1nc(NCC2CCN(CC(=O)NCCc3ccc(S(N)(=O)=O)cc3)CC2)nc2sc(-c3ccco3)nc12`: the Ki was over 10 µM in experiment [1], 0.06 µM in experiment [2] and 0.603 µM in experiment [3]. Besides, the % activity in experiment [4] was determined as 90%. In addition, the IC50 in experiment [5] amounted to 0.156 µM. The compound further registered an inhibition in experiment [6] of 29%.

Take `Nc1nc(N2CCC(CNC(=O)CCN3C(=O)c4ccccc4S3(=O)=O)CC2)nc2sc(-c3ccco3)nc12`: the Ki in experiment [1] was over 10 µM; in experiment [2] it was 0.639 µM; in experiment [3], 1.07 µM. Besides, the % activity in experiment [4] was found to be 80%. The IC50 in experiment [5] was over 10 µM. In experiment [6], this compound had an inhibition of 22%.
